Earlier results on one compound are cited in patent US20250302774A1, “LISDEX[…] OROD[…] AND PROCESS FOR PREPARATION THEREOF” (ATHENA PHARM[…], priority 2024, published 2025).

The conditions of data set [1]: active substance, exposed to moisture, dimethanesulfonate.

Like-named read-outs stand apart in the source and are kept apart here.

With `CS(=O)(=O)O.CS(=O)(=O)O.C[C@@H](Cc1ccccc1)NC(=O)[C@@H](N)CCCCN` [Lisdexamfetamine dimesylate, (2S)-2,6-diamino-N-[(1S)-1-methyl-2-phenylethyl]-hexanamide, dimethanesulfonate], the solubility result (in acetone) was “very slightly soluble”; the solubility result (in chloroform) is reported as “very slightly soluble”; the solubility result (in ethanol) is reported as “soluble”; the solubility entry (in methanol) was “freely soluble”; the solubility result (in tetrahydrofuran) is reported as “practically insoluble”; the solubility result (in toluene) was “very slightly soluble”. For the same compound, the “hygroscopic / deliquescent nature” value is listed as “highly deliquescent” in data set [1] and “hygroscopic” in data set [1] (listed as lisdexamfetamine dimesylate).
